The target in this experiment is T1, P[6] RV3 VP8* (Human rotavirus A, UniProt D7F7M7).
T1 construct: VP8* domain, N-terminal fragment of spike protein VP4 (polyprotein-like precursor cleaved by trypsin); N-terminal GST tag removed with thrombin; E. coli BL21(DE3)
Briefly: 2D 1H-15N HSQC NMR titration, global fit of […] peaks. In kind it is binding. The conditions noted are these: 70 μM 15N-labeled protein, 0.5-20 mM ligand; 10 mM sodium phosphate, 50 mM NaCl, 10% D2O, pH 7; crystal structure and STD NMR also done.

Usually Kd stands for the concentration at which binding is half-saturated. Read a high Kd as lower affinity. In turn, `CC(=O)N[C@H]1[C@H](O[C@H]2[C@@H](O)[C@@H](CO)O[C@@H](O[C@H]3[C@H](O)[C@@H](O)C(O)O[C@@H]3CO)[C@@H]2O)O[C@H](CO)[C@@H](O)[C@@H]1O[C@@H]1O[C@H](CO)[C@H](O)[C@H](O)[C@H]1O[C@@H]1O[C@@H](C)[C@@H](O)[C@@H](O)[C@@H]1O` (stereo partly shown) [LNFP1] had a Kd of 7.1 ± 0.2 mM.

Values taken from PMC6035239, “Glycan recognition in globally dominant human rotaviruses” (Nature Communications, 2018).
